Source: patent publication US11426346B2, “Lutein-containing ophthalmic composition” (Taipei Medical University, priority 2019, dated 2022)

Key:
Assay type in all cases: cell-based, human
[1] = tested on: IL-1β; test: Gene expression of inflammatory cytokine IL-1β in LPS-induced HCE-2 cells (Real-Time PCR); details: 500 ng/mL LPS 6 hours, then 2 hours treatment, compared with LPS group, FIG. 3A
Experimental: (§1) 3×10^5 (cell/ml) human corneal epithelial cells (HCE-2) were cultured in a 6-well plate and cultured overnight in an incubator for cell attachment, followed 500 ng/mL lipopolysaccharides (LPS) was added in culture medium for co-cultured with cells for 6 hours to induce cell inflammation. After 6 hours, the medium containing lipopolysaccharide (LPS) was removed, and the medium with the lutein, PVA was added to a 6-well plate. After 2 hours of treatment, the gene expressions of cellular inflammatory cytokines (IL-1β, IL-6, TNF-α) were detected by real-time polymerase chain reaction (Real-Time PCR). […]

[2] = tested on: IL-6; test: Gene expression of inflammatory cytokine IL-6 in LPS-induced HCE-2 cells (Real-Time PCR); details: 500 ng/mL LPS 6 hours, then 2 hours treatment, compared with LPS group, FIG. 3B
Experimental: as §1

[3] = tested on: TNF-α; test: Gene expression of inflammatory cytokine TNF-α in LPS-induced HCE-2 cells (Real-Time PCR); details: 500 ng/mL LPS 6 hours, then 2 hours treatment, compared with LPS group, FIG. 3C
Experimental: as §1

CC1=C[C@H](O)CC(C)(C)[C@H]1/C=C/C(C)=C/C=C/C(C)=C/C=C/C=C(C)/C=C/C=C(C)/C=C/C1=C(C)C[C@@H](O)CC1(C)C [lutein (L), lutein]
inhibit the expression: gene expression of IL-1β [1] | gene expression of IL-6 [2] | gene expression of TNF-α [3]
